Active and inactive are the calls of the source. The rule behind the calls is not given here.
How the values were obtained:
[1] = molecular target: T1, DNMT3A2/3L complex (Homo sapiens) (UniProt Q9Y6K1+Q9UJW3); assay: (§1) Inhibition of N-terminal His-tagged human DNMT3A (623 to 912 residues)/N-terminal GST-tagged human DNMT3L (160 to 387 residues) co-expressed in baculovirus infected Sf9 cells assessed as DNA methylation using DNA oligonucleotide IDT-01 as substrate at 100 uM preincubated for 15 mins followed by substrate addition in presence of [3H]-SAM and measured after 4 hrs by radioactive methylation assay; conditions: time 255.0 min
[2] = molecular target: T1, DNMT3A2/3L complex (Homo sapiens); assay: as §1, with “10” for “100”; conditions: time 255.0 min
THP-1 [3] = assay: Antiproliferative activity against human THP-1 cells assessed as inhibition of cell proliferation incubated for 72 hrs by MTT assay; type: functional, cell-based; conditions: THP-1, 72 h
K562 [4] = assay: Antiproliferative activity against human K562 cells assessed as inhibition of cell proliferation incubated for 72 hrs by MTT assay; type: functional, cell-based; conditions: K562, 72 h
DU-145 [5] = assay: Antiproliferative activity against human DU-145 cells assessed as inhibition of cell proliferation incubated for 72 hrs by MTT assay; type: functional, cell-based; conditions: DU-145, 72 h
[6] = Cytotoxicity activity against human PBMC cells assessed as inhibition of cell proliferation incubated for 72 hrs by MTT assay; type: toxicity, cell-based
[7] = molecular target: DNA (cytosine-5)-methyltransferase 3A (Homo sapiens) (UniProt Q9Y6K1); assay: Inhibition of DNMT3A in human HCT-116 cells assessed as downregulation of DNMT3A protein level at 1 uM incubated for 72 hrs by Western blot analysis; type: cell-based
[8] = molecular target: DNA (cytosine-5)-methyltransferase 3A (Homo sapiens) (UniProt Q9Y6K1); assay: Inhibition of DNMT3A in human HCT-116 cells assessed as increase in p53 protein level at 1 uM incubated for 72 hrs by Western blot analysis; type: cell-based
HCT-116 [9] = assay: cells; conditions: Homo sapiens, HCT-116, 72 h
Description: Antiproliferative activity against human HCT-116 cells assessed as inhibition of cell proliferation incubated for 72 hrs by MTT assay

U-937 [10] = assay: cells; conditions: Homo sapiens, U-937, 72 h
Description: Antiproliferative activity against human U-937 cells assessed as inhibition of cell proliferation incubated for 72 hrs by MTT assay

A549 [11] = assay: cells; conditions: Homo sapiens, A549, 72 h
Description: Antiproliferative activity against human A549 cells assessed as inhibition of cell proliferation incubated for 72 hrs by MTT assay

[12] = molecular target: DNA (cytosine-5)-methyltransferase 1 (Homo sapiens, UniProt P26358); assay: Inhibition of N-terminal GST-tagged full-length recombinant human DNMT1 assessed as DNA methylation using pdI-pdC DNA as substrate preincubated for 15 mins followed by substrate addition in presence of [3H]-SAM and measured after 150 mins by radioactive methylation assay
DNMT3B = DNMT3B (Homo sapiens, UniProt Q9UBC3); assay: as §1, with “DNMT3B (564” for “DNMT3A (623”, “853” for “912”, “substrate” for “substrate at 100 uM”
[13] = molecular target: T2, Histone-lysine N-methyltransferase EHMT2 (Homo sapiens, UniProt Q96KQ7); assay: Inhibition of N-terminal GST-tagged human G9a expressed in baculovirus infected Sf9 cells using biotinylated histone H3 peptide as substrate preincubated for 15 mins followed by substrate addition in presence of SAM and measured after 60 mins by AlphaLISA assay
T2 sequence (Q96KQ7 whole entry): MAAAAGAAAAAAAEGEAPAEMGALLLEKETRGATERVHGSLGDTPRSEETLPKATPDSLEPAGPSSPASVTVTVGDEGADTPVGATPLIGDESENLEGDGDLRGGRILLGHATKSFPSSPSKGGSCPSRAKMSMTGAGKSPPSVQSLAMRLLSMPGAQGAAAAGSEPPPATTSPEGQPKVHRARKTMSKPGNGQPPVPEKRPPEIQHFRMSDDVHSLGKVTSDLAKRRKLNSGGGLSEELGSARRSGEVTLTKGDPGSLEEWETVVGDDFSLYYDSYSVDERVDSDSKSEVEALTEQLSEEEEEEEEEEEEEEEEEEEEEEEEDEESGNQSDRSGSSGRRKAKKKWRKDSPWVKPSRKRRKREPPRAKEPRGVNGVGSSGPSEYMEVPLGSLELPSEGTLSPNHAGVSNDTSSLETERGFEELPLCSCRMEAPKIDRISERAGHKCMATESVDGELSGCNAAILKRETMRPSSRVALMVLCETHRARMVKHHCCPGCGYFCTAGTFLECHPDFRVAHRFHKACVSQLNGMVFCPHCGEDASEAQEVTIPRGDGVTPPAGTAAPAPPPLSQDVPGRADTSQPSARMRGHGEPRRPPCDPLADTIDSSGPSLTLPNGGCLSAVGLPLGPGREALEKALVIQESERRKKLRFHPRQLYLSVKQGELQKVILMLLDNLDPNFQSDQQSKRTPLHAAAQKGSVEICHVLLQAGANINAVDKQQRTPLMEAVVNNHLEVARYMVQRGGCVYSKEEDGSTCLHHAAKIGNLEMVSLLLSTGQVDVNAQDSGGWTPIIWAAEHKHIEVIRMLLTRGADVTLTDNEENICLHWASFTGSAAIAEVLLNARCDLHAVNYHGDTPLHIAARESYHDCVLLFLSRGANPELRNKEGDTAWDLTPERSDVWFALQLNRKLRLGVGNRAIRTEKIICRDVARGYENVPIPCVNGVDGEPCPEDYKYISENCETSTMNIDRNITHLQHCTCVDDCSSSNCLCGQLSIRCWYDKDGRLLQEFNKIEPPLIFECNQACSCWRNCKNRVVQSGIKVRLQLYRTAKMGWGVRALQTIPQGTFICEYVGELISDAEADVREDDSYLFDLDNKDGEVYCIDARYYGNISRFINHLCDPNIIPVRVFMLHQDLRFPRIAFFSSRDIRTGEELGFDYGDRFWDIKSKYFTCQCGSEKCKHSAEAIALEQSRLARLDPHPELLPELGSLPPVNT

THP-1 [14] = assay: Antiproliferative activity against human THP-1 cells assessed as inhibition of cell proliferation at 0.1 to 100 uM incubated upto 72 hrs by MTT assay; type: functional, cell-based; conditions: dose 0.1-100 µM
HCT-116 [15] = assay: Antiproliferative activity against human HCT-116 cells assessed as inhibition of cell proliferation at 0.1 to 100 uM incubated upto 72 hrs by MTT assay; type: functional, cell-based; conditions: dose 0.1-100 µM
U-937 [16] = assay: Antiproliferative activity against human U-937 cells assessed as inhibition of cell proliferation at 0.1 to 100 uM incubated upto 72 hrs by MTT assay; type: functional, cell-based; conditions: dose 0.1-100 µM
K562 [17] = assay: Antiproliferative activity against human K562 cells assessed as inhibition of cell proliferation at 0.1 to 100 uM incubated upto 72 hrs by MTT assay; type: functional, cell-based; conditions: dose 0.1-100 µM
A549 [18] = assay: Antiproliferative activity against human A549 cells assessed as inhibition of cell proliferation at 0.1 to 100 uM incubated upto 72 hrs by MTT assay; type: functional, cell-based; conditions: dose 0.1-100 µM
DU-145 [19] = assay: Antiproliferative activity against human DU-145 cells assessed as inhibition of cell proliferation at 0.1 to 100 uM incubated upto 72 hrs by MTT assay; type: functional, cell-based; conditions: dose 0.1-100 µM
THP-1 [20] = assay: Antiproliferative activity against human THP-1 cells assessed as inhibition of cell proliferation at 100 uM incubated for 24 to 72 hrs by MTT assay; type: functional, cell-based; conditions: time 24-72 hrs, TDE = time-dependent effect
HCT-116 [21] = assay: Antiproliferative activity against human HCT-116 cells assessed as inhibition of cell proliferation at 100 uM incubated for 24 to 72 hrs by MTT assay; type: functional, cell-based; conditions: time 24-72 hrs, TDE = time-dependent effect
U-937 [22] = assay: Antiproliferative activity against human U-937 cells assessed as inhibition of cell proliferation at 100 uM incubated for 24 to 72 hrs by MTT assay; type: functional, cell-based; conditions: time 24-72 hrs, TDE = time-dependent effect
K562 [23] = assay: Antiproliferative activity against human K562 cells assessed as inhibition of cell proliferation at 100 uM incubated for 24 to 72 hrs by MTT assay; type: functional, cell-based; conditions: time 24-72 hrs, TDE = time-dependent effect
A549 [24] = assay: Antiproliferative activity against human A549 cells assessed as inhibition of cell proliferation at 100 uM incubated for 24 to 72 hrs by MTT assay; type: functional, cell-based; conditions: time 24-72 hrs, TDE = time-dependent effect
DU-145 [25] = assay: Antiproliferative activity against human DU-145 cells assessed as inhibition of cell proliferation at 100 uM incubated for 24 to 72 hrs by MTT assay; type: functional, cell-based; conditions: time 24-72 hrs, TDE = time-dependent effect

Chain of DNA (cytosine-5)-methyltransferase 3A (Homo sapiens) (Q9Y6K1 whole entry, looked up): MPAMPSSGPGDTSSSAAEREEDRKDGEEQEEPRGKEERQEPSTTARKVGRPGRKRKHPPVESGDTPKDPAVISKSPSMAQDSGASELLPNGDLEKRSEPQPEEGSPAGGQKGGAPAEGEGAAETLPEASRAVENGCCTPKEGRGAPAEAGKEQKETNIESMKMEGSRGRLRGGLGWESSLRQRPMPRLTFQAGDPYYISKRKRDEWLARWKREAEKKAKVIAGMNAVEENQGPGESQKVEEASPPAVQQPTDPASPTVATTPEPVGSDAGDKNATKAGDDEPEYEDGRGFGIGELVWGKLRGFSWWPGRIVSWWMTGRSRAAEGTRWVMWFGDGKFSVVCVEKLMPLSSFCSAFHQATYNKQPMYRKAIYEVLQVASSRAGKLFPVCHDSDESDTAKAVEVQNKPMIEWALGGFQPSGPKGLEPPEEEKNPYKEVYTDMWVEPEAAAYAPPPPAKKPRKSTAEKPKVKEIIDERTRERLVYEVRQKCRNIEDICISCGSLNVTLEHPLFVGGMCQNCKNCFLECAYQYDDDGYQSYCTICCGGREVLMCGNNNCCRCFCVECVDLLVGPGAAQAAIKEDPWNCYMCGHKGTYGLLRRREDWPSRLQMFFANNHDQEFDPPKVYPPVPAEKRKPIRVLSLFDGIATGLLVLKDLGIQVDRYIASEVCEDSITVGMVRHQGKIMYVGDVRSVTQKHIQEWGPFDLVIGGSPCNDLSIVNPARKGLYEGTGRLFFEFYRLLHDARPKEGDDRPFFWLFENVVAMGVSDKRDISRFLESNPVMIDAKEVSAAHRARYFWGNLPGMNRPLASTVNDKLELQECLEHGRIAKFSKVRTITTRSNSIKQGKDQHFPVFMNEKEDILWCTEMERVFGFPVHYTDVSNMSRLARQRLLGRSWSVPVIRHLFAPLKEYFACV
T1 sequence (Q9UJW3 whole entry, looked up, the tested form may be a part): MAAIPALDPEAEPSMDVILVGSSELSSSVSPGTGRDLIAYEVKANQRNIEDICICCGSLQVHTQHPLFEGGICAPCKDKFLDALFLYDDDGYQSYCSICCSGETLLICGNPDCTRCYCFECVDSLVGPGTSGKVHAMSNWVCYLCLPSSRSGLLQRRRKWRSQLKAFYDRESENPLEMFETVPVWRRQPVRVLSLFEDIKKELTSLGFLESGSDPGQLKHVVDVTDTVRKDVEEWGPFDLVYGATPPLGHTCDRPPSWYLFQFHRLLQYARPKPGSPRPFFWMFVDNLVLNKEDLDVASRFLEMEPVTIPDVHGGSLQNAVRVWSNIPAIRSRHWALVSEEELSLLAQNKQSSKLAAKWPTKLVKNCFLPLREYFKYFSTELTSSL
T1 sequence (Q9Y6K1 whole entry, looked up, the tested form may be a part): as the sequence (Q9Y6K1 whole entry, looked up) above
Chain of DNA (cytosine-5)-methyltransferase 1 (P26358 whole entry): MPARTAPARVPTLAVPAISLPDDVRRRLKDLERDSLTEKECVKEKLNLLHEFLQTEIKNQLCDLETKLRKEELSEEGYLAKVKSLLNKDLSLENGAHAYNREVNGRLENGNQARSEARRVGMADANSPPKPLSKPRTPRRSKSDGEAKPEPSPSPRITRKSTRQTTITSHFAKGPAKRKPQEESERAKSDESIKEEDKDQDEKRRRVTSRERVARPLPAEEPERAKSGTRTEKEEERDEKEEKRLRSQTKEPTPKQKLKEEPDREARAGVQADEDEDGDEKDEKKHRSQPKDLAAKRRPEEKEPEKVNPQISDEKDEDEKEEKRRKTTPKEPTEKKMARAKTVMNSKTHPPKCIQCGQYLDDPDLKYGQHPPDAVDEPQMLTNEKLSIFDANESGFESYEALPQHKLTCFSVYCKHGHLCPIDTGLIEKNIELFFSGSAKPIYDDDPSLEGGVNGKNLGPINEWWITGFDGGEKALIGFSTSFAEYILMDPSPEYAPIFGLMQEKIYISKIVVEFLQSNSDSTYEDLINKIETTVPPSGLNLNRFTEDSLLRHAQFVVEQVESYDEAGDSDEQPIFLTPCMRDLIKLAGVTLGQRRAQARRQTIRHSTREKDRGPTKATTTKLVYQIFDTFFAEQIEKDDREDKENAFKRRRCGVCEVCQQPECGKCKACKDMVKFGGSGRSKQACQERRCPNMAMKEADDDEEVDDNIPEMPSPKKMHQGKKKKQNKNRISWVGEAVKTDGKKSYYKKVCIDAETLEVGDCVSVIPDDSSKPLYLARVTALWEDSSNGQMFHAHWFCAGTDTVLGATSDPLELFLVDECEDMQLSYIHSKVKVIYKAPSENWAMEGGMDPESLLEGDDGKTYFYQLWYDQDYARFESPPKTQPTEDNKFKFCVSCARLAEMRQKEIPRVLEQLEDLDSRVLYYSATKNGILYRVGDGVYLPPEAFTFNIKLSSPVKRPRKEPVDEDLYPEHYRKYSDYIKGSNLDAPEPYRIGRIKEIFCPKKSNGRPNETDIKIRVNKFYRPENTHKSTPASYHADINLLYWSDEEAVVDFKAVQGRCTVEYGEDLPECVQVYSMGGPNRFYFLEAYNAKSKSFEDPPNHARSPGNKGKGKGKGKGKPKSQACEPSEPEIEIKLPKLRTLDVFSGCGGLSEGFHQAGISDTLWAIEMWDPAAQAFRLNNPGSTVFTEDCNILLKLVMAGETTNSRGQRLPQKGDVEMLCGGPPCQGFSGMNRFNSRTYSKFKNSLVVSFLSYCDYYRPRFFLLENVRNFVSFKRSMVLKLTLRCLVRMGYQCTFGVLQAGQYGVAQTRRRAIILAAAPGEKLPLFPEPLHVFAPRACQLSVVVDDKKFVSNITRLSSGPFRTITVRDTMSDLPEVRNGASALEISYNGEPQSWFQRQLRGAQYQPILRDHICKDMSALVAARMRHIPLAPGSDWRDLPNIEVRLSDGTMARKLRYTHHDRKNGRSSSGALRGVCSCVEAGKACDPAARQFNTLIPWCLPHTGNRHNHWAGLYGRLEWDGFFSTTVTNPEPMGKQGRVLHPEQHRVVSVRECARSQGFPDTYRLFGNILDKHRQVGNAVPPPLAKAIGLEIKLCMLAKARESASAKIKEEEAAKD

SMILES: Cc1oc2ncn(CCN3CCCC3)c(=O)c2c1C(=O)Nc1ccc(C#N)cc1
- inhibition [1]: 48.6%
- inhibition [2]: 47.5%

SMILES: Cc1oc2ncn(CCN3CCOCC3)c(=O)c2c1C(=O)Nc1ccc(C#N)cc1
- inhibition [1]: 5.8%
- inhibition [2]: 1%

SMILES: Cc1oc2ncn(CCCN3CCCC3)c(=O)c2c1C(=O)Nc1ccc(C#N)cc1
- inhibition [1]: 53.9%
- inhibition [2]: 33.7%

SMILES: Cc1cc(Nc2ccc(NC(=O)c3ccc(Nc4ccnc5ccccc45)cc3)cc2)nc(N)n1
- IC50 (THP-1 [3]): 0.7 µM
- IC50 (K562 [4]): 0.6 µM
- IC50 (DU-145 [5]): 3.4 µM
- IC50 at 72 h [6]: 2 µM
- inhibition [7]: inactive
- p53 protein level increase (active/not active) [8]: inactive
- IC50 (HCT-116 [9]): 0.9 µM
- IC50 (U-937 [10]): 0.7 µM
- IC50 (A549 [11]): 8.9 µM

SMILES: Cc1oc2ncn(CCN3CCCCC3)c(=O)c2c1C(=O)Nc1ccc(C#N)cc1
- inhibition [1]: 14.3%
- inhibition [2]: 25.4%

SMILES: Cc1sc2ncn(CCCN(C)C)c(=O)c2c1C(=O)Nc1ccc(C#N)nc1
- inhibition [1]: 37.8%
- inhibition [2]: 28.9%

SMILES: Cc1oc2ncn(Cc3ccccc3)c(=O)c2c1C(=O)Nc1ccc(S(N)(=O)=O)nc1
- inhibition [1]: 29.5%

SMILES: Cc1oc2ncn(CC3CCCO3)c(=O)c2c1C(=O)Nc1ccc(S(N)(=O)=O)nc1 (stereo not drawn)
- inhibition [1]: 29.5%

SMILES: Cc1oc2ncn(CCCN3CCCCC3)c(=O)c2c1C(=O)Nc1ccc(C#N)cc1
- inhibition [1]: 44%
- inhibition [2]: 32.9%

SMILES: Cc1oc2ncn(CCN3CCCCC3)c(=O)c2c1C(=O)Nc1ccc(S(N)(=O)=O)nc1
- inhibition [1]: 77.7%
- inhibition [2]: 70.5%
- IC50 [12]: 51.2 µM
- IC50 (DNMT3B): > 100 µM
- IC50 [13]: > 500 µM
- Activity (THP-1 [14]): Dose-Dependent Effect
- Activity (HCT-116 [15]): Dose-Dependent Effect
- Activity (U-937 [16]): Dose-Dependent Effect
- Activity (K562 [17]): Dose-Dependent Effect
- Activity (A549 [18]): Dose-Dependent Effect
- Activity (DU-145 [19]): Dose-Dependent Effect
- IC50 (THP-1 [3]): 2.2 µM
- IC50 (K562 [4]): 6.1 µM
- IC50 (DU-145 [5]): 5.3 µM
- IC50 at 72 h [6]: 137 µM
- p53 protein level increase (active/not active) [8]: Active
- Activity (THP-1 [20]): Tde
- Activity (HCT-116 [21]): Tde
- Activity (U-937 [22]): Tde
- Activity (K562 [23]): Tde
- Activity (A549 [24]): Tde
- Activity (DU-145 [25]): Tde
- IC50 (HCT-116 [9]): 0.5 µM
- IC50 (U-937 [10]): 1.8 µM
- IC50 (A549 [11]): 11.1 µM
